Results from patent publication US5958947A, “DNA-affinic hypoxia selective cytotoxins” (priority 1996, dated 1999).
Several values for one entry are separate records, joined by “and”; a condition that tells them apart may be missing. Equal values may be shown once. Entries after “also recorded” stand apart in the source; their conditions may differ. Where a name gives a salt, the structure may show the parent alone. Read-outs that look alike come from different tables or passages of the source.

Columns and labels:
[1] = tested on: V79 Chinese hamster lung cells; experiment: Acute aerobic and hypoxic cytotoxicity (colony formation); assay type: cell-based; settings: for IC50: V79, 1 h, hypoxia, 50% inhibition of clonogenicity; for viability at 100 µM: 3.5 hours
Description: (§1) Samples of V79 Chinese hamster lung cells used in the following experiments were prepared as follows. V79 cells, exponentially growing as monolayer cultures in RPMI 1640 medium (Mediatech) supplemented with 10% fetal calf serum, were trypsinized, centrifuged for 5 min, harvested, then suspended in 25 ml Erlenmeyer flasks fitted with rubber caps at 5×10^5 cells/ml (5 ml). Individual flasks either were shaken (100 rpm) at 37° C. under aerobic conditions or made hypoxic by gassing with a 95% N2 (nitrogen)/5% CO2 (carbon dioxide) humidified gas mixture for 1 hour.
(§2) To determine the fraction of surviving cells, samples were removed, diluted and plated to provide 2×10^2 to 2×10^4 cells/well on 60 mm Linbro multi-well plates (Flow Laboratories, McLean, Virginia). The plates were incubated at 37° C. for 6 days, stained with crystal violet and examined for colony formation. Colonies of 50 cells or greater were counted. Each plotted point in FIGS. 1 and 2 represent the mean of three or four replicate experiments.

[2] = as above; assay type: cell-based, Chinese hamster; settings: chinese hamster, aerobic v79 cells, aerobic, 1 hour, 37° C.; for IC50 at 1 h: V79 cells, 50% inhibition of clonogenicity
Description: as §1, §2

[3] = Water solubility
[4] = tested on: human Topo II; experiment: Topoisomerase II interaction (decatenation of kinetoplast DNA); assay type: biochemical; settings: up to 1 mM
Description: A Topo II assay kit (TopoGEN, Inc., Columbus, Ohio) also was used to assay the topoisomerase II--THNLA-1 interaction. […] Individual reaction mixtures were heated for 30 minutes at 37° C. on a heating block, and then 2 μl of a 10% SDS-proteinase K solution was added to each reaction mixture. The resulting reaction mixtures then were heated for an additional 30 minutes at 37° C. After addition of a 0.1 volume of loading buffer, the reaction mixtures were extracted with CHCl3 prior to submarine electrophoresis on a 1% agarose gel containing ethidium bromide (0.5 μg/ml).

[5] = tested on: V79 cells; experiment: Chemosensitization to L-PAM or cis-DDP in V79 cells; assay type: cell-based, Chinese hamster; settings: for chemosensitization to L-PAM or cis-DDP: V79 cells
Description: L-PAM, also known as phenylalanine mustard and available from Sigma Chem. Co., St. Louis, Mo., first was dissolved in an ethanolic solution of HCl (0.5N). The ethanolic HCl solution was buffered with propylene glycol in a 1:9 ratio of ethanolic HCl solution to propylene glycol, and finally diluted 100 fold with suspension medium. cis-DDP, a platinum-based chemotherapeutic agent available from Sigma Chem. Co., St. Louis, Mo., was dissolved in water to a predetermined concentration.
Experiments using a simultaneous addition of the sensitizer and chemotherapeutic agent for 1 hour at 37° C. under aerobic conditions were also performed.
In all experiments, controls for the hypoxic cytotoxicity of the sensitizer and the toxicity of the chemotherapeutic alone were included. Survival curves were normalized for the hypoxic cytotoxicity of sensitizer in order to determine the dose modification factor (DMF), i.e., the ratio of chemotherapeutic agent concentrations required to reduce cell survival to a predetermined level (e.g., 0.5) alone or in combination with a sensitizer. Synergism between the chemotherapeutic agent and the chemosensitizer was determined using the fractional product concept which is applied in instances of independent action of drugs, or by isobologramic analysis. The results of the chemosensitization studies are illustrated in FIGS. 12-15.

[6] = tested on: V79 Chinese hamster lung cells; experiment: Radiosensitization of V79 cells; assay type: cell-based; settings: for maximum SER value: hypoxic V79 cells, 100 μM for THNLA-1, non-toxic concentrations for others
Description: as §1
Radiosensitization studies were performed on V79 cells in a manner similar to the acute toxicity experiments, except that the survival fraction was determined after a predetermined radiation dose. […] One Gy is equal to 100 rads, wherein one rad is the quantity of ionizing radiation that results in the absorption of 100 ergs of energy per gram of irradiated material. Hypoxia was maintained throughout irradiation. […] Sensitization enhancement ratios (SER) were determined at a 10% survival level. […] The plotted points in FIGS. 3 and 4 represent the mean of 2 or 3 replicate experiments.

[7] = tested on: supercoiled DNA; experiment: DNA intercalation by agarose gel electrophoresis (mobility of supercoiled DNA); assay type: binding; settings: electrophoretic gel, up to millimolar concentrations
Source text: An agarose gel electrophoresis technique was used to determine whether THNLA-1 intercalates DNA. Compounds that strongly intercalate DNA retard DNA mobility during agarose gel electrophoresis due to unwinding and extension of the dsDNA.

[8] = Partition coefficient in octanol/water; assay type: physicochemical
Description: The partition coefficient of the hypoxia selective cytotoxins of the present invention were determined by the method of T. Fujita et al., J. Am. Chem. Soc., 86, 5175-5180 (1964), incorporated herein by reference.

[9] = tested on: V79 cells; experiment: Isoeffective to the oxygen dose (IsD); assay type: cell-based, Chinese hamster; settings: Cricetulus griseus; for EC (isoeffective to oxygen at 7.5 Gy): read-out: Isoeffective to the oxygen dose at 7.5 Gy: IsD(7.5); for EC (isoeffective to oxygen at 20 Gy): read-out: Isoeffective to the oxygen dose at 20 Gy: IsD
Source text: The survival fraction under hypoxic conditions (plotted versus compound concentration) meets the aerobic survival fraction (radiation toxicity) at the IsD. The IsD value is a useful indicator of the overall potency of a compound as a sensitizer and cytotoxin of hypoxic cells. IsD is especially useful when comparing different compounds for hypoxic cytotoxicity and radiosensitizing efficacy.
FIGS. 5 and 6 illustrate the IsD at 7.5 Gy (FIG. 5A) and 20 Gy (FIG. 5B). FIGS. 5A and 6A include a comparison to the prior art NLA-1 compound. V79 cells were irradiated at 7.5 Gy or 20 Gy after a 1 hour exposure under hypoxia (symbols) or air (straight line), at various drug concentrations. No toxicity or radiosensitization for any tested compound was observed under aerobic conditions over the tested concentration ranges. IsD values were calculated from the intersections of the survival fractions of the hypoxic curves with the survival fraction in air. All data points in FIGS. 5 and 6 represent the mean of two replicate experiments.

[10] = Cricetulus griseus, V79 cells, 1 hour, 37° C.

Structure (SMILES): O=[N+]([O-])c1nccn1CCCNc1c2c(nc3ccccc13)CCSC2 [S-THNLA-1, 10-[3-(2-nitroimidazolyl)propylamino]-3,4-dihydro-1-H-thiopyrano[4,3-b]quinoline hydrochloride]
- IC50 [1, 10]: 68 µM
- Hypoxic selectivity (differential aerobic/hypoxic toxicity): IC50/A,1h /IC50/H,1h ([1]; V79 cells, 1 hour, 37° C.): about 9
- IC50 at 1 h [2]: 580 µM
- solubility [3]: ~9.5 mM
- inhibition of Topo II-induced decatenation of kinetoplast DNA [4]: did not inhibit the action of Topoisomerase II on kinetoplast DNA
- chemosensitization to L-PAM or cis-DDP [5]: strong chemosensitizers
- EC (SER 1.6) ([6]; Cricetulus griseus, V79, 1 h, read-out: Hypoxic radiosensitizing potency: C1.6, concentration yielding an SER of 1.6, hypoxic V79 cells): 40 to 45 µM
- EC (SER 1.6) ([6]; Cricetulus griseus, V79, read-out: Intracellular concentration at C1.6: C1.6i, hypoxic radiosensitization, V79 cells (tables)): 932 µM
- EC (SER 1.6) ([6]; concentration yielding an SER of 1.6, hypoxic V79 cells, hydrochloride, read-out: Hypoxic radiosensitizing potency: C1.6): 40 µM
- maximum SER value [6]: equal to OER
- therapeutic index relative to NLA-1 ([6]; in vitro ThI): better therapeutic index than NLA-1
- Therapeutic index (ThI): IC50/A,1h /C1.6 ([6]; in vitro, V79 cells): about 15
- effect on mobility of supercoiled DNA [7]: do not affect the mobility of supercoiled DNA
- Partition coefficient in octanol/water: PCo/w ([8]; hydrochloride): 0.41 and 0.40
- EC (isoeffective to oxygen at 7.5 Gy) ([9]; V79, 1 h): 60 µM
- EC (isoeffective to oxygen at 20 Gy) ([9]; V79, 1 h): ~103 µM

Structure (SMILES): Cl.O=[N+]([O-])c1nccn1CCCNc1c2c(nc3ccccc13)CCCC2 [THNLA-1, 9-[3-(2-nitro-1-imidazolyl)propylamino]-1,2,3,4-tetrahydroacridine hydrochloride]
- IC50 [1, 10]: ~33 µM
- IC90 ([1]; Cricetulus griseus, V79, hypoxic, 1 hour, 37° C., read-out: concentration to achieve a 10% survival fraction, hypoxic): ~100 µM
- viability at 100 µM ([1]; V79, aerobic, read-out: survival fraction, aerobic): ~50%
- viability at 100 µM ([1]; V79, hypoxic, read-out: survival fraction, hypoxic): < 0.002%
- IC50 at 1 h [2]: ~360 µM
- IC90 at 1 h ([2]; read-out: concentration to achieve a 10% survival fraction, aerobic): ~475 µM
- solubility [3]: ~12 mM
- inhibition of Topo II-induced decatenation of kinetoplast DNA ([4]; hydrochloride): does not inhibit the Topo II-induced decatenation of KDNA even at very high concentrations; also recorded: did not inhibit decatenation of kinetoplast DNA
- DMF value of L-PAM at 0.5 survival fraction ([5]; 10 μM THNLA-1, 2 hours hypoxic pretreatment, then L-PAM 1 hour aerobic): 3.2
- DMF value of cis-DDP at 0.5 survival fraction ([5]; 15 μM THNLA-1, 2 hours hypoxic pretreatment, then cis-DDP 1 hour aerobic): 4.2
- chemosensitization to L-PAM or cis-DDP ([5]; hydrochloride): powerful potentiator of chemotherapeutic agent toxicity; also recorded: strong chemosensitizers
- potentiation of L-PAM or cis-DDP under aerobic conditions ([5]; aerobic exposure): no potentiation occurred
- DMF compared with NLA-1 ([5]; cis-DDP or L-PAM combination, about 30% of the IC50/H,1h, hydrochloride): slightly greater than the DMF value obtained using a combination including NLA-1; also recorded: significantly more efficacious chemosensitizer than NLA-1
- interaction with L-PAM or cis-DDP ([5]; hypoxic pretreatment, isobologram and fractional product concept, hydrochloride): synergistic interaction; also recorded: dramatic decrease in survival fraction; also recorded: unexpected synergistic effect
- radiosensitization of hypoxic V79 cells ([6]; 1 hour at 37° C. before irradiation, hypoxic): Significant radiosensitization
- EC (SER 1.6) ([6]; Cricetulus griseus, 1 h, concentration yielding an SER of 1.6, hypoxic V79 cells, read-out: Hypoxic radiosensitizing potency: C1.6): 19 µM
- EC (SER 1.6) ([6]; Cricetulus griseus, hypoxic radiosensitization, V79 cells (tables), read-out: Intracellular concentration at C1.6: C1.6i): 443 µM
- EC (SER 1.6) ([6]; Cricetulus griseus, hypoxic radiosensitization, V79 cells, read-out: Intracellular concentration for an SER of 1.6: C1.6i): 443 µM
- radiosensitization when administered immediately after irradiation ([6]; V79 cells (hypoxic conditions), hydrochloride): radiosensitization also was not observed; also recorded: No radiosensitization was observed
- radiosensitization under aerobic conditions ([6]; V79 cells, aerobic): Radiosensitization was not observed
- radioprotection under aerobic conditions ([6]; aerobic): no radioprotection occurred
- maximum SER value [6]: 3.1
- effect on mobility of supercoiled DNA [7]: do not affect the mobility of supercoiled DNA
- Partition coefficient in octanol/water: PCo/w [8]: 0.14
- logP ([8]; read-out: Partition coefficient in octanol/water: PCo/w (converted)): -0.854
- EC (isoeffective to oxygen at 7.5 Gy) ([9]; V79, 1 h, 7.5 Gy, 1 hour at 37° C.): ~40 µM
- EC (isoeffective to oxygen at 20 Gy) ([9]; V79, 20 Gy, 1 hour at 37° C.): ~78 µM
